The values below come from patent US5571788A, “Stable calcitonin pharmaceutical compositions” (Ciba-Geigy Corporation, priority 1994, dated 1996).

Data set [1] is described as follows: Ability of an acid to produce a stable hCT solution (stored 24 hours at 25° C., solution remains clear). Particulars: aqueous hCT solution with the acid, no salt or buffer. It counts as physicochemical.
Data set [2] in a line: Long-time hCT stability of aqueous solutions (solution remains clear, free of fibrils). Particulars: for time solution is stable: Example 1 repeated (5 mg/ml hCT) with acetic acid replaced by the named acid.
The nature of data set [3]: Extrapolated time of fibrillation (ln/ln plot of fibrillation time against hCT concentration). It is filed as physicochemical. Particulars: 5-9 mg/ml hCT in 0.001% acetic acid, 4° C.; ln/ln plot from solutions up to 100 mg/ml hCT. The procedure: The stability of the solution is dependent on the concentration. We have found a linear correlation between the natural logarithm of fibrillation time and the natural logarithm of hCT concentration at a given temperature. From measurements on hCT solutions with concentrations up to 100 mg/ml hCT and using the 1n/1n plot, stability of more than 5 years at 4° C. is predicted for solutions with 5-9 mg/ml hCT in 0.001% acetic acid.
Solutions of hCT are made using different concentrations of methyl cellulose (MC) and hydroxypropyl methyl cellulose (HPMC) with and without 0.01% benzethonium chloride (BTC), in one case also with 0.001% acetic acid (AA) and in one case using 0.5% dextran (D). The extrapolated time of fibrillation in years is given for hCT concentration of 3.3 mg/ml and 6.6 mg/ml.

A short description of data set [4]: SUNTEST accelerated light exposure, stability against fibril formation. Particulars: Example 3 solutions with 0.5% hydroxypropylmethylcellulose; after 24 hours at 47° C. in SUNTEST machine. It counts as physicochemical.
Data set [5] can be described thus: Chemical stability tests (Roger's test). It counts as physicochemical. Particulars: 3.3 mg/ml hCT, 0.5% methyl cellulose, 0.02% benzethonium chloride, 0.001% acetic acid; in 5 years, storage at 10° C. The procedure: A solution of hCT is made containing 3.3 mg/ml hCT, 0.5% methyl cellulose, 0.02% benzethonium chloride and 0.001% acetic acid. Chemical stability tests (Roger's test) predicted only 0.02% chemical decomposition of the hCT in 5 years for storage at 10° C.

Data set [6] in a line: Absorption spectra and HPLC of stored hCT solutions. It is filed as physicochemical. Particulars: hCT stored in aqueous solutions of Example 1.

For `O=C(O)CCCC(=O)O` [glutaric acid], the “acid forms stable hCT solution” value in data set [1] is reported as “form stable solutions”. Also, the “time solution is stable” value in data set [2] is “over 4 days”.
Turning to `N[C@@H](CC(=O)O)C(=O)O` [aspartic acid], the “acid forms stable hCT solution” value in data set [1] is “do not form stable solutions”.
As for `CC(=O)O` [acetic acid], the “acid forms stable hCT solution” value in data set [1] is listed as “form stable solutions”. In addition, the “stabilising conditions for hCT solution” value in data set [2] (acid concentration 0.001%) is “best case”.
In the case of human calcitonin [hCT], the “predicted stability of hCT solution” value in data set [3] is on record as “more than 5 years”. For the same compound, in data set [2] (Example 3: Example 1 solutions (5 mg/ml hCT, acetic acid) plus 0.5% hydroxypropylmethylcellulose, 4° C., 22° C. and 37° C., in the dark or in daylight), the “time solutions are stable” value is listed as “more than 3.5 months”. The “stability against fibril formation under accelerated light exposure” value in data set [4] was “stable against fibril formulation”. Further, in data set [5], the “predicted chemical decomposition of the hCT” value is listed as 0.02%. Moreover, the “change in hCT properties (absorption spectra and HPLC)” value in data set [6] was “no change in hCT properties”.
In the case of `N[C@@H](CCC(=O)O)C(=O)O` [L-glutamic acid], in data set [2], the “time solution is stable” value is “over 4 days”.
As to `O=C(O)[C@H](O)[C@@H](O)[C@H](O)[C@H](O)CO` [gluconic acid], the “acid forms stable hCT solution” value in data set [1] is listed as “do not form stable solutions”.
In the case of `O=C(O)CC(=O)O` [malonic acid], in data set [1], the “acid forms stable hCT solution” value is on record as “form stable solutions”. The “time solution is stable” value in data set [2] is recorded as “over 4 days”.
Taken in the same sequence, the figures for `O=C(O)CCCCC(=O)O` [adipic acid] were “form stable solutions” and “over 4 days”.
`O=C1O[C@H]([C@@H](O)CO)C(O)=C1O` [ascorbic acid]: the “acid forms stable hCT solution” value in data set [1] is reported as “form stable solutions”. In addition, in data set [2], the “time solution is stable” value is listed as “over 4 days”.
For `O=CO` [formic acid], in that order: “form stable solutions” and “over 4 days”.
On to `O=C(O)C(O)C(O)C(=O)O` [L-α-tartaric acid], for which the “acid forms stable hCT solution” value in data set [1] is recorded as “form stable solutions”. Moreover, the “time solution is stable” value in data set [2] is listed as “over 4 days”.
Take `O=C(O)CN(CCN(CC(=O)O)CC(=O)O)CC(=O)O` [ethylene - diamine tetraacetic acid]: the “acid forms stable hCT solution” value in data set [1] is “form stable solutions”.
For the compound `O=C(O)C(O)C(O)C(=O)O` (racemic) [DL-tartaric acid], the “acid forms stable hCT solution” value in data set [1] is reported as “form stable solutions”. Further, the “time solution is stable” value in data set [2] is listed as “over 4 days”.
For `O=C(O)CCC(=O)O` [succinic acid], the “time solution is stable” value in data set [2] is reported as “over 4 days”.
With `N[C@H](CCC(=O)O)C(=O)O` [D-glutamic acid], in data set [1], the “acid forms stable hCT solution” value is given as “do not form stable solutions”.
On to `Oc1ccccc1` [phenol], for which the “acid forms stable hCT solution” value in data set [1] is reported as “form stable solutions”.
In the case of `O=C(O)/C=C\C(=O)O` [maleic acid], the “acid forms stable hCT solution” value in data set [1] is recorded as “do not form stable solutions”.
The same measure, in the same setting: next, `O=S(=O)(O)O` [sulphuric acid]: “do not form stable solutions”.
With `Cl` [hydrochloric acid], the “acid forms stable hCT solution” value in data set [1] was “form stable solutions”. In addition, the “time solution is stable” value in data set [2] is “over 4 days”.
Taken in the same sequence, the figures for `O=C(O)CC(O)(CC(=O)O)C(=O)O` [citric acid] were “form stable solutions” and “over 4 days”.
